Data on 2 compounds can be found in patent US20200270225A1, “Chiral Diacylhydrazine Ligands for Modulating the Expression of Exogenous Genes via an Ecdysone Receptor Complex” (Intrexon Corporation, priority 2007, published 2020).

Data set [1] in a line: Solubility in pharmaceutical excipients, Assay 2 (heating, cooling, seeding). It counts as physicochemical. Conditions: supersaturated solutions seeded with crystalline substance, room temperature. On the procedure: For each excipient, the lowest concentration at which R enantiomer or racemate of 2-Ethyl-3-methoxy-benzoic acid N′-(1-tert-butyl-butyl)-N′-(3,5-dimethyl-benzoyl)-hydrazide is insoluble in the FIG. 9 assay was identified. Suspensions of both materials at this same concentration were prepared in vials. Each sample was stirred at room temperature for ≤2.5 hr (treatment 1). As a separate experiment, test article/excipient combinations were heated in an aluminum block at 90° C. for 5 minutes, or longer as needed; indicated in FIG. 10, and allow to cool to room temperature, and seeded with a tiny amount of the same micronized substance. (treatment 2). The physical appearance was recorded at 72 hr or the indicated time (FIG. 10). In all cases, no change in color was observed. This solubility assay operates from a fully dissolved condition in which initial particle size and morphic form are irrelevant. […] Photos were taken of preparations in clear glass vials (R enantiomer under the conditions of assay 1 without heating to 90° C., and racemate after 90° C. treatment, cooling and seeding, not shown).

Data set [2] can be described thus: Solubility and appearance of 20 mg/mL preparations in Labrasol. Conditions: sonicated at 25-28° C. It counts as physicochemical. The method, then: These Labrasol dosing preparations utilized micronized R enantiomer, but non-micronized racemate. To address the possibility that the non-micronized racemate specimen might bias its dissolution rate in Labrasol, an independent experiment was performed. In this experiment, the solubility and appearance of 20 mg/mL preparations of micronized and non-micronized racemate were examined. Micronized racemate (lot REH-28-9-1/PYAP-2-8-2-2M), non-micronized racemate (lot # PYAP-2-8-2-2), and micronized R enantiomer (lot # REH-28-4-2) were each suspended in Labrasol, swirled by hand, and then sonicated in a Branson 2100 table top sonicator at 25-28° C. for 3×5 min intervals and a 1×10 min interval, interspersed with swirling by hand. […] By visual inspection, the quantity of undissolved material in micronized and non-micronized racemate samples was substantially the same. […] Some larger crystal fragments remained in the non-micronized sample. Since both micronized and non-micronized samples of racemate result in similar amounts of undissovled material, it appears that the major difference between R enantiomer and racemate Labrasol preparations is the intrinsic solubility rather than the starting particle size of the solute.

The nature of data set [3]: Blood serum levels after oral gavage in Labrasol. Conditions: 30 and 50 mg/kg/day, 9 and 12 days. Type of data set: in vivo, C57BL/6N:Crl mice. On the procedure:
Compounds in Labrasol were administered to C57BL/6N:Crl (wild-type) mice (Charles River Laboratories) by oral gavage, the intended route of administration in humans. Dosage was set at 3, 10, 30, or 50 mg/kg/day and 2.5 mL/kg/dose (FIG. 16). Doses were administered for 9 days (first 18 females/group) or 12 days (second 18 females/group) (FIG. 16). Blood was withdrawn at 9-day and 12-day time points. Concentrations were quantified by reverse-phase HPLC.
For each concentration, the samples were prepared by adding Labrasol to solid R enantiomer or racemate in a beaker, sonicating to break up visible aggregates, and magnetic stirring until a uniform appearance was attained. The mixtures were transferred to a graduated cylinder and topped off to the requisite volume using a Labrasol rinse of the beaker. The contents of the cylinder were mixed by inversion and stirred magnetically until dosing.
Mouse blood serum levels as a function of time were measured by quantitative HPLC. […] The initial particle size differences between racemate an R enantiomer may account for a portion of the serum level differences. Also, the greater intrinsic solubility of the R enantiomer over the racemate in Labrasol may account for a portion of the serum level differences. […]

Data set [4] deals with murine IL-12 under the control of the RTS. Description: In vivo induction of transgene IL-12 from Ad-RTS-mIL-12 transduced B16 tumor cells. Details: species or system C57BL/6 mice. To be noted: for IL-12 expression levels after ligand treatment discontinued: ligand discontinued for 3 days; for transgene IL-12 expression in tumor and serum, dose pattern: oral gavage 0, 3, 10, 30, 50 mg/kg daily for 3 days. On the procedure: The transgene tested in this example was murine IL-12 under the control of the RTS. Mouse melanoma cells (B16) were transduced with an adenoviral vector Ad-RTS-mIL-12 that carries the murine IL-12 transgene under the control of RTS. These cells were injected subcutaneously (s.c.) into the C57BL/6 mice (histocompatible with B16 cells) and the mice were treated with different doses of the R enantiomer and racemic 2-ethyl-3-methoxy-benzoic acid N′-(1-tert-butyl-butyl)-N′-(3,5-dimethyl-benzoyl)-hydrazide for three days. The control groups included the mice receiving untransduced B16 cells and the higher dose of ligand and another group receiving the transduced B116 cells and no ligand. […] Tumor extracts and serum were prepared and assayed for IL-12 by ELISA.
The remaining mice were used for testing the transgene turn-off when the ligand administration is discontinued for an additional 72 hours.
Materials and Methods: B16 cells were infected with Ad-RTS-mIL-12 (MOI=100) in vitro. After 48 h, 5×10^5 (B16, right flank) cells were injected s.c. into C57 BL/6 mice (10 mice/group). The R enantiomer and racemate ligands were dissolved in Labrasol by heating a 10 mg/mL mixture at 50° C. for 5 minutes. Both ligands were dissolved in Labrasol based on visual inspection. Activating ligands were provided via oral gavage at the following doses (0 mg/kg; 3 mg/kg; 10 mg/kg; 30 mg/kg and 50 mg/kg) daily for 3 days. Additional controls included B16-bearing mice receiving ligand only (50 mg/kg/day for 3 days and untreated tumor-bearing mice). Five mice/group were harvested for isolation of tumor lesions and peripheral blood. Tissue was homogenized in 1 ml total of phosphate-buffered saline. Lysate/serum was cryopreserved at −80° C. The alternate 5 mice/group were allowed to sit for an additional 72 h in the absence of further ligand administration. These latter 5 mice/group were harvested for isolation of tumor lesions and peripheral blood. Tissue was homogenized as above, and cryopreserved and lysate/serum was cryopreserved at −80° C. Specimens were thawed at 37° C. in water bath and analyzed for mIL-12p70 and also mIFN-γ, a corollary IL-12-dependent cytokine important for CTL trafficking into tumors, using specific ELISAs (BD-Pharmingen).

For `CCC[C@@H](N(NC(=O)c1cccc(OC)c1CC)C(=O)c1cc(C)cc(C)c1)C(C)(C)C` [Example 1, (R)-3,5-Dimethyl-benzoic Acid N-(1-tert-butyl-butyl)-N′-(2-ethyl-3-methoxy-benzoyl)-hydrazide], in data set [1], the “physical appearance of excipient solutions after seeding” value was “remains fully dissolved”. Moreover, in data set [2], the “solubility and appearance in Labrasol” value was “readily dissolved”. The blood serum levels result in data set [3] is recorded as “significantly higher blood serum levels”. In data set [4], the “IL-12 expression levels after ligand treatment discontinued” value is on record as “dropped to similar proportions in all the treatment groups”; the “transgene IL-12 expression in tumor and serum, dose pattern” value is “dose-dependent pattern”. Further, in data set [4] (mouse, in vivo), the “IFN-γ levels in tumor and serum” value is “clearly showed enhanced expression”.
In the case of `CCCC(N(NC(=O)c1cccc(OC)c1CC)C(=O)c1cc(C)cc(C)c1)C(C)(C)C` (racemic) [rac-1, rac-2-ethyl-3-methoxy-benzoic acid N′-(1-tert-butyl-butyl)-N′-(3,5-dimethyl-benzoyl)-hydrazide], in data set [1], the “physical appearance of excipient solutions after seeding” value is reported as “precipitation/crystallization upon seeding”. For the same compound, the “solubility and appearance in Labrasol” value in data set [2] is “remained cloudy with suspended fine particles”. Further, the blood serum levels result in data set [3] is listed as “substantially lower (<4-5 fold AUC)”. Besides, in data set [4], the “IL-12 expression levels after ligand treatment discontinued” value is on record as “dropped to similar proportions in all the treatment groups”; the “transgene IL-12 expression in tumor and serum, dose pattern” value is reported as “dose-dependent pattern”.
